Source: US8987321B2, “Lisofylline analogs and methods for use” (University of Virginia Patent Foundation, priority 2005, dated 2015)

What was measured:
mouse-origin β-TC6 cells [1] = test: Insulin release, pancreatic β cell lines; assay type: cell-based; settings: mouse islet cell line
Protocol: (§1) The disclosed analogs (CPW1-15) were evaluated in pancreatic β cell lines for apoptosis protection after treatment with inflammatory cytokines (reflected by reduced OD450) and insulin-release (see FIGS. 5 and 6).
At the end of treatment, cells are washed with Krebs-Ringer-bicarbonate-HEPES buffer (KR13) containing in mM: 134 NaCl, 4.7 KCl, 1.2 KH2P04, 1.2 MgS04, 1.0 CaCI2, 10 HEPES, and 0.1% bovine serum albumin at 37° C., at a pH of 7.4. The cells are pre incubated in the same buffer for 30 min followed by 60-min incubation in KRB supplemented with 15 mM D-glucose (J. T. Baker, Phillisburg, N.J.). The supernatant is harvested and subjected to centrifugation to eliminate residue cells. Insulin secreted into the supernatant is measured using EIA with mouse insulin as a standard. The results are illustrated in FIGS. 9A-9P.

human islets [2] = test: Insulin secretion in human islets exposed to cytokines; assay type: cell-based; settings: human islet, in the presence of inflammatory cytokines
Protocol: (§2) Four compounds (CPW7, CPW8, CPW11, and CPW12) were also evaluated on human islets for the induction of insulin secretion, intracellular ATP concentrations and the effect of reducing cell death exposed to cytokines (combination of human IL-1β, IFN-γ, and TNF-α). The results are illustrated FIGS. 7A-7D.

Solubility = assay type: physicochemical; settings: in words
Protocol: (§3) Further evaluations were performed for some of the LSF analogs in MDS assays, solubility, oral bioavailability, and stability (see Table 1).

rCYP 1A2 = target: T1, rCYP 1A2 (Homo sapiens, UniProt P05177); test: rCYP450 inhibition, 1A2; assay type: in vitro ADME; design: concentration or dose not given beside the values
T1 sequence (P05177 1-516): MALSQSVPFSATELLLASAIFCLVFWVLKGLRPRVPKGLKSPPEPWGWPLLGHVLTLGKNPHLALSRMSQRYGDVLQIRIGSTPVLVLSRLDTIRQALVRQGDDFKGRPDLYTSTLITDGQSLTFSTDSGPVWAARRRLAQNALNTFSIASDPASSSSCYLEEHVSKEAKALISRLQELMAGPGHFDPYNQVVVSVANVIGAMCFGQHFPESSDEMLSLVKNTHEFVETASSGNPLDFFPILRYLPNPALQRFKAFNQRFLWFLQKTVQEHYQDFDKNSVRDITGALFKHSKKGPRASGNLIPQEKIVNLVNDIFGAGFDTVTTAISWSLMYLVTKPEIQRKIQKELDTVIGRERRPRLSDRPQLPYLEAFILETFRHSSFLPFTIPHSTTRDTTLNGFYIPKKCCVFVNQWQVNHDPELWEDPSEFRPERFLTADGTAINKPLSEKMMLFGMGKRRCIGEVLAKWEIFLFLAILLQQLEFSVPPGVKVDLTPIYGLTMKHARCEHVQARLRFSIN
Protocol: (§4) Further evaluations were performed for some of the LSF analogs in MDS assays, solubility, oral bioavailability, and stability (see Table 1). Analogs having greater than 50% inhibitory activity were considered to have high activity; analogs having from 20-49% inhibitory activity were considered to have medium activity; and analogs having less than 20 inhibitory activity were considered to have low activity

rCYP 2C9 = rCYP 2C9 (Homo sapiens, UniProt P11712); test: rCYP450 inhibition, 2C9; assay type: in vitro ADME; design: concentration or dose not given beside the values
Protocol: as §4

rCYP 2C19 = rCYP 2C19 (Homo sapiens, UniProt P33261); test: rCYP450 inhibition, 2C19; assay type: in vitro ADME; design: concentration or dose not given beside the values
Protocol: as §4

mouse-origin β-TC6 cells [3] = test: β-cell apoptosis protection after inflammatory cytokines, pancreatic β cell lines; assay type: cell-based; settings: mouse islet cell line
Protocol: as §1
The β-TC6 cell line is maintained in RPMI 1640 medium (Life Technologies, Rockville, Md.) supplemented with 10% heat inactivated fetal bovine serum, 10 mM HEPES, […] L-glutamine, 50 units/ml penicillin and 50 μg/ml streptomycin at pH 7.4. The cells are cultured in a 37° C., humidified incubator supplied with 5% carbon dioxide. Fresh media is replaced every two days. Unless otherwise stated, the cells are plated at a density of 10^5/cm^2. Culture vessels (dishes and chamber slides) used for experiments were coated with poly-D-lysine and gelatin (Sigma, St. Louis, Mo.) to retain detached and dead cells so that seeding cell numbers reflect the actual cell numbers after all treatment conditions.
β-TC6 cells are treated with vehicle alone or with the combination of recombinant mouse IL-1β (5 ng/ml), IFN-γ (100 ng/ml) and TNF-α (10 ng/ml) (R&D Systems, Minneapolis, Minn.) suspended in complete RPMI medium. LSF (Cell Therapeutics, Inc. Seattle, Wash.) or the analogs are added simultaneously with the cytokines in complete RPMI medium in the concentrations ranging 1 nM-[…]. All treatments are conducted for 18 hours. The results are illustrated in FIGS. 5A-8P.

Caco-2 = Caco-2 permeability test; assay type: in vitro ADME
rCYP 2D6 = rCYP 2D6 (Homo sapiens, UniProt P10635); test: rCYP450 inhibition, 2D6; assay type: in vitro ADME; design: concentration or dose not given beside the values
Protocol: as §4

cytochrome p450 = cytochrome p450 inhibition, overall statement; assay type: in vitro ADME
Excerpt: Analogs having greater than 50% inhibitory activity were considered to have high activity; analogs having from 20-49% inhibitory activity were considered to have medium activity; and analogs having less than 20 inhibitory activity were considered to have low activity

human islets [4] = test: Cell death of human islets exposed to cytokines; assay type: cell-based; settings: human β-cells
Protocol: as §2

Metabolic stability = assay type: in vitro ADME
Protocol: as §3

Chain of rCYP 2C19 (P33261 whole entry): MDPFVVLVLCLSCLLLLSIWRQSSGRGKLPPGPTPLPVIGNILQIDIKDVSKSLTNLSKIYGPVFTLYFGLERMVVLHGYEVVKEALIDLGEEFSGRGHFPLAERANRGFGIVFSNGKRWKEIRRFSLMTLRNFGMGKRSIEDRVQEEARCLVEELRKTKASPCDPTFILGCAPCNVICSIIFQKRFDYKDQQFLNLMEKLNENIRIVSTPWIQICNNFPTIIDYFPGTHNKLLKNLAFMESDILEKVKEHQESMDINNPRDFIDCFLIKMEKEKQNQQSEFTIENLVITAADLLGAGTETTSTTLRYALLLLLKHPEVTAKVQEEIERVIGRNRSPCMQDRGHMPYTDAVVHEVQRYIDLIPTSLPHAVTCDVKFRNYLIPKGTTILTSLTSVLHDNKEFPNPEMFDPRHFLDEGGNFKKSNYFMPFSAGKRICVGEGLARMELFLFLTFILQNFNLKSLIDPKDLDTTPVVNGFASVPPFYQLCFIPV
Chain of rCYP 2D6 (P10635 whole entry): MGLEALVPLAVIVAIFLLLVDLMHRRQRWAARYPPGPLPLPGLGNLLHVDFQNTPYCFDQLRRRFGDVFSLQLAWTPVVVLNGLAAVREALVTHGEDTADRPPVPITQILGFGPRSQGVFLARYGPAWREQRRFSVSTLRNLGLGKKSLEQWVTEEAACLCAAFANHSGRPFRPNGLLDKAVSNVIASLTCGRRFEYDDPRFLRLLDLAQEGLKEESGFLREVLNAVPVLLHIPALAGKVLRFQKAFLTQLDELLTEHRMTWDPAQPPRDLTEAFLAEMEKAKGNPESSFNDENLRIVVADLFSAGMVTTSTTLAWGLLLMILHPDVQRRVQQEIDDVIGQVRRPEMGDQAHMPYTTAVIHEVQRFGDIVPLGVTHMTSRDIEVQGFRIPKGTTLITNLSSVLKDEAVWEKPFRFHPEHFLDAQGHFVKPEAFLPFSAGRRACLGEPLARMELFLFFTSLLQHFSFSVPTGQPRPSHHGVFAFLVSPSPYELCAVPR
Chain of rCYP 2C9 (P11712 whole entry): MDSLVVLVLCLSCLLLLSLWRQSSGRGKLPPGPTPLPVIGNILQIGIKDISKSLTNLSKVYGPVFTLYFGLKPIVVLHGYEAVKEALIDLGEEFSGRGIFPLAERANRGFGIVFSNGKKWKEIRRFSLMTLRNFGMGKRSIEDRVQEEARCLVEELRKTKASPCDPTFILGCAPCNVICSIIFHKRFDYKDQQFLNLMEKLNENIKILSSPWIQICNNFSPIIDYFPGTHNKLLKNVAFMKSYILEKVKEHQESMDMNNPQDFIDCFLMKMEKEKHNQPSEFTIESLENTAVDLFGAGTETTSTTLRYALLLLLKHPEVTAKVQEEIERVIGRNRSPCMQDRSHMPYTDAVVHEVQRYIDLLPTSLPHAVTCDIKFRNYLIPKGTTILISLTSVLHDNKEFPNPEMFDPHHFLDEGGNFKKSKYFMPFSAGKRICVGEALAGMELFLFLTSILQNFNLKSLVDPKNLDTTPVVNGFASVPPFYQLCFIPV

C[C@@H](O)CCCCOc1n[nH]c(=O)c2ccccc12 [CPW12]
insulin release (mouse-origin β-TC6 cells [1]): positive effects
insulin secretion (human islets [2]): positive effects
solubility (Solubility): acceptable
rCYP % Inhibition 1A2 (rCYP 1A2): 18%
rCYP % Inhibition 2C9 (rCYP 2C9): 30%
rCYP % Inhibition 2C19 (rCYP 2C19): 30%
β-cell protection (mouse-origin β-TC6 cells [3]): positive effects
Caco-2 permeability test results (Caco-2): could be orally absorbed from the GI track
rCYP % Inhibition 2D6 (rCYP 2D6): 12%
cytochrome p450 inhibition (cytochrome p450): low (less than 20 inhibitory activity)
maintaining cell viability (human islets [4]): beneficial effect
Metabolic Stability Percent Remaining (Metabolic stability): 75%
stability (Metabolic stability; in words): acceptable
